Consider 4 molecules from patent US8710184B2, “Motilin-like peptide compound having transmucosal absorbability imparted thereto” (Daiichi Sankyo Company, Limited, priority 2009, dated 2014).

Values joined by “and” are separate entries in the source; they are usually repeats but may differ in a detail not shown here. Equal values may be shown once. Starred links: 1 amine or outer side, 2 acyl side, 3 side chain; linkers in the order of their positions; H or OH if unused. Non-standard residues stand in square brackets, D forms with d. Residues, ends and D or L forms follow the SMILES beside them. No end group written: not given here. β3hPhg = O=C(C[C@@H](N[*:1])c1ccccc1)[*:2]; Sar = CNCC(=O)O

A short description of data set [1]: Pharmacokinetic experiment on pulmonarily administered native motilin and motilin derivative compounds in rats (RIA). Format: in vivo, rat. The settings on record: for Cmax / AUC / BA: 25 μg/rat; for AUC: trapezoidal method; for BA: relative to AUC of intravenous native motilin. On the procedure: As test animals, 7- to 10-wk old male SD rats (purchased from CHARLES RIVER LABORATORIES JAPAN, INC.) that consisted of 3 rats per a group were subjected to the following experiment. Native motilin or motilin derivative compounds were dissolved in an aqueous solution of 0.1 N acetic acid to prepare a solution at a concentration of 1 mg/mL and 25 μL of the solution was administered into the polyethylene tube through the trachea by means of an intratracheal liquid spraying device (MicroSprayer; product of Penn Century). […] In the measurement, the respective derivatives were used as standard substances to construct calibration curves for determining the plasma levels.
Using these values, bioavailability (BA (%)) was calculated by the following equation: BA(%)=[(AUC/Dose)/(AUC(motilin—iv)/Dose(motilin—iv))]×100 • AUC: AUC (ng·min/mL) after pulmonary administration • Dose: dose (μg/kg) in pulmonary administration • AUC (motilin_iv): AUC (ng·min/mL) after intravenous administration of native motilin • Dose (motilin_iv): dose (μg/kg) in intravenous administration of native motilin.

Data set [2] concerns conscious dog's gastrointestinal tract. The data set can be described thus: Fasting IMC inducing activity in conscious dogs (force transducers). Particulars: for IMC Inducing activity: fasting period, intravenous, 0.1 μg/kg. It counts as in vivo. An excerpt: More specifically, dogs under anesthesia were subjected to a surgical operation in which force transducers were sutured to the serous membranes of the gastric antrum, duodenum, jejunum and ileum along the ring-shaped muscle and, thereafter, the strain from each transducer was sent to a recorder via an amplifier.

Data set [3] can be described thus: Pharmacokinetic experiment on intravenously administered native motilin in rats (RIA). Format: in vivo. The settings on record: male, SD, rat, plasma, 100 ug/kg, intravenous, 100 μg/kg. On the procedure:
Native motilin was administered intravenously to rats and its plasma levels were measured.
As test animals, 7-wk old male SD rats (purchased from CHARLES RIVER LABORATORIES JAPAN, INC.) that consisted of 3 rats per a group were subjected to the following experiment. Native motilin was dissolved in a 5% mannitol solution to prepare a solution at a concentration of 100 μg/mL and this solution was administered to each rat at a dose of 1 mL/kg through the tail vein by means of a syringe and a 26G needle (both being products of TERUMO).

Data set [4] is described as follows: Motilin degradation experiment using a lung homogenate supernatant. Format: in vitro ADME. From the text: To solve this problem, the present inventors first assumed that motilin might be degraded after noninvasive transmucosal administration and performed a motilin degradation experiment using a lung homogenate supernatant.
The nature of another data set: in vivo. Particulars: male, cynomolgus monkey, iv, 10 ug/kg. On the procedure:
In this example, native motilin and a motilin derivative compound were administered intravenously to monkeys and their plasma concentrations were measured.
As test animals, 8- to 9-year old male cynomolgus monkeys (N=1-2 per group) were subjected to the following experiment. Native motilin and compound 2 were each dissolved in a 5% mannitol solution to prepare solutions at a concentration of 100 μg/mL; the solutions were administered to the animals at a dose of 0.1 mL/kg through the right cephalic vein by means of a syringe and a needle (both being products of TERUMO). Before administration and 5, 10, 15, 20, 30 and 60 minutes after administration, blood was sampled through the left cephalic vein.
To the collected sample, a 10% EDTA.2Na.2H2O solution was immediately added at a volume ratio of 1:100 and the plasma was separated by centrifugation. The plasma was immediately mixed with a 5,000 IU/mL aprotinin solution at a volume ratio of 1:10 and stored at −80° C. until use in measurement.
Measurement of the plasma concentrations of native motilin and the motilin derivative compound was conducted by the radioimmunoassay (RIA) technique using an anti-motilin antibody. Stated more specifically, after adding an anti-motilin antibody to the plasma sample, [^125I-Tyr7] motilin was added for a competitive reaction to take place. By subsequent addition of a secondary antibody, the motilin binding to the anti-motilin antibody was precipitated and after separating the supernatant, the radioactivity in the precipitating faction was measured with a γ-counter (product of PerkinElmer).
From the obtained profiles for the plasma concentrations of native motilin and the motilin derivative compound, the plasma concentration at time zero (C0) and the area under curve for plasma concentrations (AUC) were calculated as pharmacokinetic parameters; C0 was determined by extrapolation and AUC by the trapezoidal method.

The nature of data set [5]: Pharmacokinetic experiment on intranasally administered native motilin and a motilin derivative compound in monkeys (RIA). Format: in vivo, cynomolgus monkey. The settings on record: intranasal administration; for BA: relative to intravenous AUC of each compound; for AUC / Cmax: male, cynomolgus monkey, plasma, inhaled or intranasal, mean for N = 1-2. On the procedure:
This example was conducted with a view to measuring by RIA the changes that occurred in monkeys in terms of the plasma concentrations of transnasally administered native motilin and a motilin derivative compound.
In the experiment, 10- to 11-year old male cynomolgus monkeys were used. Native motilin or compound 2 and microcrystalline cellulose were mixed at a ratio of 1:40 to prepare intranasal preparations, 20-mg portions of which were filled into gelatin capsules. Each capsule was administered into the right nasal cavity of each animal by means of an intranasal administration device (product of Hitachi Automotive Systems, Ltd.). Before administration and 5, 10, 15, 20, 30, 60, 120 and 180 minutes after administration, blood was sampled through the cephalic vein. The collected blood sample was treated as in Comparative Example 2 to separate plasma and the concentrations of native motilin and the motilin derivative compound in plasma were measured by RIA. In the measurement, the respective derivatives were used as standard substances to construct calibration curves for determining the plasma levels.
Using these values, bioavailability (BA (%)) was calculated by the following equation: BA(%)=[(AUC/Dose)/(AUC(iv)/Dose(iv))]×100 • AUC: AUC (ng·min/mL) after intranasal administration • Dose: dose (μg/kg) in intranasal administration • AUC (iv): AUC (ng·min/mL) after intravenous administration of each compound • Dose (iv): dose (μg/kg) in intravenous administration of each compound.

Data set [6] in a line: HPLC fractionation and RIA of rat plasma after pulmonary administration (unaltered form vs metabolites). Format: in vivo. On the procedure:
This example was conducted with a view to measuring by RIA the changes that occurred in rats in terms of the plasma concentrations of pulmonarily administered native motilin and motilin derivative compounds. When the RIA technique is applied, all substances that react with the anti-motilin antibody are detected, so aside from unaltered forms, metabolites that react with the antibody are also likely to be detected.
To be more specific, a polyethylene tube (PE-240; product of Clay Adams) was inserted into the trachea of 7-wk old male SD rats (purchased from CHARLES RIVER LABORATORIES JAPAN, INC.); native motilin or compound 2 (MT114) was dissolved in an aqueous solution of 0.1 N acetic acid to prepare a solution at a concentration of 1 mg/mL and 25 μL of the solution was administered into the polyethylene tube through the trachea by means of an intratracheal liquid spraying device (MicroSprayer; product of Penn Century). Five minutes after the administration, blood was sampled through the abdominal aorta and treated as in Comparative Example 1 to separate plasma. […] For each sample, an eluate was sampled at one-minute intervals from just after the sample injection to a 40-minute after sample injection and the immunological activity in each fraction was measured by RIA.

For data set [7] the following is noted: Non-Patent Document 18; cited from earlier work.
Setting [8] is: in vivo, pulmonary administration.
[9] abbreviates: male, SD, plasma, other: pulmonary administration (intratracheal liquid spray).
The mark [10] stands for this setting: male, SD, plasma, inhaled or intranasal, 25 ug/animal, pulmonary administration.

A word on the Cmax: it is the highest concentration seen after dosing. In data set [1] (setting [8]), `CC[C@H](C)[C@H](NC(=O)CN(C)C(=O)[C@@H](NC(=O)C[C@@H](N)c1ccccc1)C(C)C)C(=O)N[C@@H](Cc1ccccc1)C(=O)N[C@H](C(=O)N[C@@H](Cc1ccc(O)cc1)C(=O)NCC(=O)N[C@@H](CCC(=O)O)C(=O)N[C@@H](CC(C)C)C(=O)N[C@@H](CCC(N)=O)C(=O)N[C@@H](CCCNC(=N)N)C(=O)N[C@@H](CCSC)C(=O)N[C@@H](CCC(N)=O)C(=O)N[C@@H](CCC(=O)O)C(=O)N[C@@H](CCCCN)C(=O)N[C@@H](CCC(=O)O)C(=O)N[C@@H](CCCNC(=N)N)C(=O)N1CCC[C@H]1C(=O)N[C@@H](CCCCN)C(=O)N1CCC[C@H]1C(=O)N[C@@H](CCC(N)=O)C(=O)O)[C@@H](C)O` [Compound 10, Phg(C#CH2) Val Sar Ile Phe Thr Tyr Gly Glu Leu Gln Arg Met Gln Glu Lys Glu Arg Pro Lys Pro Gln] (β3hPhg-V[Sar]IFTYGELQRMQEKERPKPQ-OH; N-terminus and C-terminus assumed) had a Cmax of 6.1 ± 1.5 ng/mL and an AUC of 3.16 ng·h/mL. Further, in data set [1] (pulmonary administration), the BA came to 5.9 ± 0.8%. The “IMC Inducing activity” value in data set [2] is “Positive”.

With `CC[C@H](C)[C@H](NC(=O)[C@@H]1CCCN1C(=O)[C@@H](NC(=O)[C@@H](N)Cc1ccccc1)C(C)C)C(=O)N[C@@H](Cc1ccccc1)C(=O)N[C@H](C(=O)N[C@@H](Cc1ccc(O)cc1)C(=O)NCC(=O)N[C@@H](CCC(=O)O)C(=O)N[C@@H](CC(C)C)C(=O)N[C@@H](CCC(N)=O)C(=O)N[C@@H](CCCNC(=N)N)C(=O)N[C@@H](CCSC)C(=O)N[C@@H](CCC(N)=O)C(=O)N[C@@H](CCC(=O)O)C(=O)N[C@@H](CCCCN)C(=O)N[C@@H](CCC(=O)O)C(=O)N[C@@H](CCCNC(=N)N)C(=O)N[C@@H](CC(N)=O)C(=O)N[C@@H](CCCCN)C(=O)NCC(=O)N[C@@H](CCC(N)=O)C(=O)O)[C@@H](C)O` [Native motilin, reference compound], the C0 in data set [3] (by extrapolation, read-out: plasma concentration at time zero (C0)) is 1800 ng/mL; in “in vivo”, 233 ng/mL. Besides, the AUC in data set [3] (trapezoidal method, read-out: area under curve for plasma concentrations (AUC) (converted)) is 60 ng·h/mL; in the data set “in vivo”, 13.1 ng·h/mL; in data set [1] (setting [9]), 1.58 ng·h/mL; in data set [5] (0.49 mg/animal) it was 4.02 ng·h/mL. Further, the “degradation in lung homogenate supernatant” value in data set [4] is “found to be degraded”. Further, the results for the highest concentration (Cmax) in data set [1] (setting [9]) and in data set [5] (0.49 mg/animal) were 7.84 ± 0.98 ng/mL and 13.6 ng/mL, respectively. In addition, the BA in data set [1] (pulmonary administration) is 3.3 ± 0.1%; in data set [1] (pulmonary administration, listed as native motilin) it was 3.3%; in data set [5], 3.6%. Further, the “IMC Inducing activity” value in data set [2] is reported as “Positive”. The “duration of contraction of the duodenum” value in data set [2] (intravenous 0.1 μg/kg, FIG. 1) is “about 10 minutes”. For the same molecule, the “duration of contraction of the gastric antrum” value in data set [2] (intravenous 0.1 μg/kg, FIG. 1) is “about 10 minutes”. Also, in data set [6] (rat, in vivo), the “immunological activity peaks in HPLC fractions of plasma” value is given as “detected only at the elution point corresponding to the administered compound (in unaltered form)”.

Consider FVPIFTYGELQRLQEKERNKPQ [Compound 2], for which the AUC is 15.4 ng·h/mL in “in vivo”, 5.84 ng·h/mL in data set [1] (setting [10]) and 6.02 ng·h/mL in data set [5]. In “in vivo”, this molecule came in with a C0 of 273 ng/mL. The values for the maximum concentration (Cmax) in data set [1] (setting [10]) and in data set [5] were 26.6 ± 11.3 ng/mL and 23.5 ng/mL, respectively. Moreover, the BA in data set [1] (pulmonary administration) was 10.4% and 10.4 ± 4.3%; in data set [5] it was 5.1%. The “profile of plasma concentration compared with native motilin” value is “high peak levels” in data set [1] (pulmonary administration, FIG. 3) and “a high peak level” in data set [5] (FIG. 5). Further, the “immunological activity peaks in HPLC fractions of plasma” value in data set [6] (rats, pulmonary administration, plasma 5 minutes after administration) is “detected only at the elution point corresponding to the administered compound (in unaltered form)”.

As for atilmotin, the half-life in plasma result in data set [7] is listed as “about 10 minutes”.
